Each structure is given as a SMILES string.

One experiment concerns the target human Gal-3 (hGal-3) (Homo sapiens (Human), UniProt P17931). The experiment in a line: Competitive binding assay: biotinylated hGal-3 binding to microplate-adsorbed asialofetuin (ASF). The settings on record: IC50 values from several measurements given as geomean. The method, boiled down:
(§1)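 Biotinylated hGal-3 or hGal-1 (preferably cysteine-free Cys→Ser mutant), 300–1000 ng/mL, competes with compound for ASF-coated wells for 3 h at 4 °C. Bound lectin detected with streptavidin-peroxidase (80 ng/mL, 1 h, 4 °C) and ABTS by absorbance; IC50 reported as geomean of several runs.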

For the next experiment, the target named is human Gal-1 (hGal-1) (Homo sapiens, UniProt P09382, C131S/C17S/C43S/C61S/C89S). Description: Competitive binding assay: biotinylated hGal-1 binding to microplate-adsorbed asialofetuin (ASF). The settings on record: IC50 values from several measurements given as geomean. The gist of the method: as §1

Chain of human Gal-3 (hGal-3) (P17931 whole entry): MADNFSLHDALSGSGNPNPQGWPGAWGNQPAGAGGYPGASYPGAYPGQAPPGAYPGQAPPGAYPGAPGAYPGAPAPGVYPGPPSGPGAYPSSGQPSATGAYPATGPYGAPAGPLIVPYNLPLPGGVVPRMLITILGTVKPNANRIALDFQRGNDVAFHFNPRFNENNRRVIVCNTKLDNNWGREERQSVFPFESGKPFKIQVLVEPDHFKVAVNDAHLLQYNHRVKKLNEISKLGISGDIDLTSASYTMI

As usually defined, the IC50 is the concentration at which inhibition is half-maximal. As to `CO[C@@H]1[C@@H](n2cc(-c3ccc(Cl)c(F)c3F)nn2)[C@@H](O)[C@@H](CO)O[C@@H]1Cc1cn(C2(CF)CC2)nn1` [Ex 2.1.46.], the IC50 at human Gal-3 (hGal-3) amounted to 30 nM; on human Gal-1 (hGal-1) it was 1070 nM.

For `CO[C@@H]1[C@@H](n2cc(-c3ccc(Cl)c(F)c3F)nn2)[C@@H](O)[C@@H](CO)O[C@@H]1Cc1cn([C@@H]2CCC[C@@H]2F)nn1` [Example 2.1.79.A, (2R,3R,4S,5R,6R)-4-(4-(4-chloro-2,3-difluorophenyl)-1H-1,2,3-triazol-1-yl)-6-((1-((1R,2S)-2-fluorocyclopentyl)-1H-1,2,3-triazol-4-yl)methyl)-2-(hydroxymethyl)-5-methoxytetrahydro-2H-pyran-3-ol], the results for the IC50 on human Gal-3 (hGal-3) and at human Gal-1 (hGal-1) were 20 nM and 1510 nM, respectively.

In the case of `CO[C@@H]1[C@@H](n2cc(-c3ccc(Cl)c(F)c3F)nn2)[C@@H](O)[C@@H](CO)O[C@@H]1Cc1cn(C(C)(C)CF)nn1` [Ex 2.1.45.], the values for the IC50 on human Gal-3 (hGal-3) and at human Gal-1 (hGal-1) were 40 nM and 1490 nM, respectively.

For the molecule `CO[C@@H]1[C@@H](n2cc(-c3ccc(Br)c(F)c3F)nn2)[C@@H](O)[C@@H](CO)O[C@@H]1Cc1cn([C@H]2CCC[C@@H]2O)nn1` [Ex 4.1.3.], the IC50 at human Gal-3 (hGal-3) is 40 nM; at human Gal-1 (hGal-1), 4700 nM.

`CO[C@@H]1[C@@H](n2cc(-c3ccc(Br)c(F)c3F)nn2)[C@@H](O)[C@@H](CO)O[C@@H]1Cc1cn(C23CCOC(C)(C2)C3)nn1` [Ex 4.1.62., (2R,3R,4S,5R,6R)-4-(4-(4-bromo-2,3-difluorophenyl)-1H-1,2,3-triazol-1-yl)-2-(hydroxymethyl)-5-methoxy-6-((1-(1-methyl-2-oxabicyclo[3.1.1]heptan-5-yl)-1H-1,2,3-triazol-4-yl)methyl)tetrahydro-2H-pyran-3-ol]: the IC50 at human Gal-3 (hGal-3) stood at 20 nM; on human Gal-1 (hGal-1) it was 2030 nM.

For the molecule `CO[C@@H]1[C@@H](n2cc(-c3ccc(F)c(F)c3F)nn2)[C@@H](O)[C@@H](CO)O[C@@H]1Cc1cn(C2(CF)CCC2)nn1` [Ex 3.1.40., (2R,3R,4S,5R,6R)-6-((1-(1-(fluoromethyl)cyclobutyl)-1H-1,2,3-triazol-4-yl)methyl)-2-(hydroxymethyl)-5-methoxy-4-(4-(2,3,4-trifluorophenyl)-1H-1,2,3-triazol-1-yl)tetrahydro-2H-pyran-3-ol], the results for the IC50 on human Gal-3 (hGal-3) and at human Gal-1 (hGal-1) were 70 nM and 260 nM, respectively.

The values are drawn from US20240109930A1, “TRIAZOLYL-METHYL SUBSTITUTED ALPHA-D-GALACTOPYRANOSIDE DERIVATIVES” (Idorsia Pharmaceuticals Ltd, priority 2021, published 2024).
